The values below come from PubChem BioAssay (NCI).

What all share (assay): inhibition of tumour cell growth, NCI panel, 48 h
Experiment [1] relates to BT-549 breast.
In experiment [2] the test system is DU-145 prostate.
For experiment [3], the system named is HCT-116 colon.
In experiment [4] the test system is HS 578T breast.
Experiment [5] deals with KM12 colon.
The test system of experiment [6] is LOX IMVI melanoma.
The subject of experiment [7] is MALME-3M melanoma.
Experiment [8] has as its system MCF7 breast.
The subject of experiment [9] is NCI-H522 lung.
The subject of experiment [10] is OVCAR-4 ovarian.
Experiment [11] deals with OVCAR-5 ovarian.
The test system of experiment [12] is OVCAR-8 ovarian.
The test system of experiment [13] is RPMI-8226 leukemia.
In experiment [14] the test system is SF-539 CNS.
In experiment [15] the test system is SK-MEL-28 melanoma.
Experiment [16] deals with TK-10 renal.
Experiment [17] has as its system U251 CNS.
The test system of experiment [18] is HCC-2998 colon.
For experiment [19], the system named is SK-OV-3 ovarian.

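Method: 48-hour compound exposure of cells in 96-well plates, five concentrations, linear interpolation of endpoints. TGI denotes the concentration required for complete inhibition of growth.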

Turning to `Cc1ccc2oc3c(c(Br)c(Br)n3C)c(=O)c2c1`, the TGI in experiment [1] was greater than 100 µM; in experiment [2], greater than 100 µM; in [3], 33.9 µM; in experiment [4], 65 µM; in experiment [5] it was greater than 100 µM; in [6], greater than 100 µM. Moreover, the TGI in experiment [7] was 70.5 µM; in experiment [8], greater than 100 µM; in [9] it was greater than 100 µM; in [10], greater than 100 µM; in experiment [11], 99.7 µM; in experiment [12], 31.9 µM. The TGI was greater than 100 µM in [13]; 37.3 µM in experiment [14]; greater than 100 µM in experiment [15]; 38.9 µM in experiment [16]; 35.8 µM in experiment [17].

Turning to `CCCN1C(=O)/C(=C\c2ccc(OC)c(OC)c2)SC1=Nc1ccccc1`, the TGI in experiment [1], in experiment [18], in experiment [3], in [4], in experiment [5] and in experiment [6] was greater than 100 µM throughout. Besides, the TGI in experiment [7], in experiment [8], in experiment [9], in experiment [10], in [11] and in experiment [12] was greater than 100 µM in each case. Further, the TGI was greater than 100 µM in [13]; greater than 100 µM in [14]; greater than 100 µM in experiment [15]; greater than 100 µM in [19]; 74.1 µM in experiment [16]; greater than 100 µM in experiment [17].

As for `Cc1c(N2C(=O)/C(=C/c3ccc(N(CCC#N)CCC#N)cc3)N=C2c2ccccc2)c(=O)n(-c2ccccc2)n1C`, the TGI in experiment [1], in experiment [2], in experiment [18], in experiment [3], in experiment [4] and in experiment [5] was greater than 100 µM throughout. Further, the TGI in experiment [6], in experiment [7], in [8], in experiment [10], in experiment [11] and in [12] was greater than 100 µM each time. In addition, the TGI in [13], in experiment [14], in [15], in experiment [19] and in experiment [17] was greater than 100 µM in each case.

On to `Cc1cccc(C)c1Nc1nc(C)c(C(=O)CC(=O)C(=O)Nc2c(C(C)C)cccc2C(C)C)s1`, for which the TGI in [1], in [2], in [18], in experiment [3], in experiment [4] and in experiment [5] was greater than 100 µM each time. Further, the TGI in experiment [6], in experiment [8], in experiment [9], in [10], in experiment [11] and in [12] was greater than 100 µM throughout. Moreover, the TGI in experiment [13], in [14], in [15], in [19], in experiment [16] and in [17] was greater than 100 µM throughout.

On to `CC1(C)OC[C@@H](O)[C@H](Br)CO1`, for which the TGI in experiment [1], in experiment [2], in experiment [18], in [3], in experiment [4] and in experiment [5] was greater than 100 µM in each case. For the same compound, the TGI in [6], in experiment [7], in [8], in experiment [10], in experiment [11] and in experiment [12] was greater than 100 µM in each case. The TGI in experiment [13], in experiment [14], in [15], in experiment [19], in experiment [16] and in [17] was greater than 100 µM each time.

Regarding `N#CCN(CC#N)C1CC=CCC1N(CC#N)CC#N` (centres undefined), the TGI in [1], in [2], in experiment [3], in experiment [4], in experiment [5] and in experiment [6] was greater than 100 µM in each case. In addition, the TGI in [7], in experiment [8], in experiment [9], in experiment [10], in [11] and in experiment [12] was greater than 100 µM each time. The TGI in [13], in experiment [14], in experiment [19], in experiment [16] and in [17] was greater than 100 µM throughout.

Regarding `COC(=O)[C@@H]1CC(C(CN)c2cn(C(=O)OC(C)(C)C)c3ccccc23)C(=O)N1C(=O)OC(C)(C)C` (some centres undefined), the TGI was greater than 100 µM in [1]; greater than 100 µM in [2]; greater than 100 µM in experiment [3]; greater than 100 µM in experiment [4]; greater than 100 µM in experiment [5]; 30.5 µM in [6]. In addition, the TGI worked out at 54.1 µM in experiment [7]; 58.5 µM in [8]; 95.8 µM in [9]; 66.6 µM in experiment [10]; 84.2 µM in [11]; 55.8 µM in [12]. Besides, the TGI in experiment [13] was 24.1 µM; in experiment [14] it was 28.3 µM; in experiment [15], 31.4 µM; in experiment [16], greater than 100 µM; in [17], greater than 100 µM.

On to `Nc1ccc(-c2nc3ccccc3s2)cc1C#Cc1ccccc1`, for which the TGI is 34.7 µM in experiment [1]; 72.5 µM in experiment [2]; 27.4 µM in experiment [3]; 50.2 µM in experiment [4]; 37.9 µM in experiment [5]; 36 µM in [6]. Further, the TGI in experiment [7] turned out to be 28.5 µM; in experiment [8] it was 19.2 µM; in [9] it was 34.2 µM; in experiment [10], 44 µM; in [11], 54.5 µM; in experiment [12], 42.4 µM. In addition, the TGI in [13] worked out at 47.2 µM; in experiment [14], 35.4 µM; in experiment [19], 60.7 µM; in experiment [16], 30.3 µM; in experiment [17] it was 38.6 µM.

With `C=CCOc1ccccc1C1(O)c2ccccc2C2=NCCCN21` (centres undefined), the TGI in [1] is greater than 100 µM; in [2], greater than 100 µM; in experiment [18] it was 30.3 µM; in experiment [3] it was greater than 100 µM; in [4], greater than 100 µM; in [5] it was greater than 100 µM. Besides, the TGI in experiment [6] was greater than 100 µM; in experiment [8], greater than 100 µM; in experiment [10], greater than 100 µM; in experiment [11] it was greater than 100 µM; in experiment [12] it was 34.6 µM; in experiment [13], greater than 100 µM. Moreover, the TGI in experiment [14] is 39.5 µM; in experiment [15] it was 52.2 µM; in experiment [19], greater than 100 µM; in experiment [16] it was greater than 100 µM; in experiment [17], greater than 100 µM.

As to `Cc1ccc(O)c(C2=CC(c3cccc(Br)c3)SC(N)=N2)c1` (centres undefined), the TGI in experiment [1] was 83.6 µM; in [2] it was greater than 100 µM; in experiment [3] it was 35.9 µM; in [4] it was 45 µM; in experiment [5], 82.3 µM; in experiment [6], 34.7 µM. For the same compound, the TGI is 78.9 µM in experiment [7]; greater than 100 µM in [8]; 37.7 µM in [9]; greater than 100 µM in [10]; 92.5 µM in experiment [11]; greater than 100 µM in [12]. For the same compound, the TGI in experiment [13] worked out at 49.8 µM; in experiment [14], 50.3 µM; in [19], 75.6 µM; in experiment [16], 46.1 µM; in [17], 33.4 µM.

For the compound `O=C1CCCCC/C1=C\c1ccccc1`, the TGI in [1], in experiment [2], in experiment [18], in experiment [3], in [4] and in experiment [5] was greater than 100 µM each time. For the same compound, the TGI in experiment [6], in [7], in experiment [9], in experiment [10], in experiment [11] and in experiment [13] was greater than 100 µM each time. For the same compound, the TGI in experiment [15], in [19], in experiment [16] and in experiment [17] was greater than 100 µM in each case.

Consider `Cc1cc(O)c(/C=N/C(=S)Nc2ccccc2)c(=O)o1`, for which the TGI in experiment [1], in [2], in [18], in experiment [3], in experiment [4] and in [5] was greater than 100 µM throughout. Further, the TGI in experiment [6], in experiment [8], in [9], in experiment [10], in experiment [11] and in [12] was greater than 100 µM throughout. Besides, the TGI in [13], in [14], in experiment [19], in [16] and in experiment [17] was greater than 100 µM each time.

As to `CCOC(=O)C(O)(C(=O)OCC)c1cc(C(C)(C)C)c(O)c(C(C)(C)C)c1`, the TGI in experiment [1], in experiment [2], in [3], in experiment [4], in [5] and in [6] was greater than 100 µM in each case. Also, the TGI in experiment [7], in experiment [8], in experiment [9], in experiment [10], in [11] and in experiment [12] was greater than 100 µM each time. Moreover, the TGI in experiment [13] was 91.3 µM; in experiment [14], 87.8 µM; in [15], greater than 100 µM; in experiment [19], greater than 100 µM; in [16], greater than 100 µM; in experiment [17], greater than 100 µM.

Consider `CCN(CC)c1ccc2cc(C(=O)Nc3ccc(C)cc3)c(=N)oc2c1`, for which the TGI in experiment [1], in experiment [2], in experiment [18], in experiment [3], in [4] and in [5] was greater than 100 µM each time. The TGI in [6], in experiment [7], in [8], in [10], in experiment [11] and in experiment [12] was greater than 100 µM throughout. In addition, the TGI in experiment [13], in experiment [15], in experiment [19] and in [17] was greater than 100 µM throughout.

As for `CC[C@H](C)C1=C(O)[N@+]2([O-])Oc3ccc(-c4c(O)c(O)c(-c5ccc(O)cc5)c(OC(C)=O)c4OC(C)=O)cc3O[C@]2([C@@H](C)CC)C(=O)N1O`, the TGI in experiment [1] is greater than 50 µM; in experiment [2], greater than 50 µM; in [3], 20.2 µM; in [4], greater than 50 µM; in experiment [5] it was greater than 50 µM; in [6] it was greater than 50 µM. Further, the TGI in experiment [7] is greater than 50 µM; in experiment [8] it was greater than 50 µM; in [9] it was 17.4 µM; in experiment [10], 36.2 µM; in [11], greater than 50 µM; in [12], greater than 50 µM. Besides, the TGI in experiment [13] was 29.9 µM; in [14], greater than 50 µM; in [15], greater than 50 µM; in experiment [19], 48 µM; in [16], greater than 50 µM; in experiment [17] it was greater than 50 µM.

`CN(C(=O)Cc1cc(Cl)c(Cl)cc1NC(=O)CN)[C@H]1CCCC[C@@H]1N1CCCC1`: the TGI was greater than 100 µM in experiment [1]; greater than 100 µM in [2]; 31.6 µM in experiment [18]; greater than 100 µM in experiment [3]; 64 µM in [4]; greater than 100 µM in experiment [5]. For the same compound, the TGI in experiment [6] was 41.6 µM; in [7], 36.1 µM; in experiment [8] it was greater than 100 µM; in experiment [10], greater than 100 µM; in experiment [11] it was greater than 100 µM; in experiment [12] it was greater than 100 µM. Further, the TGI in experiment [13] was 94 µM; in experiment [19], greater than 100 µM; in experiment [16], greater than 100 µM; in experiment [17], 32.6 µM.
